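Values below derive from 48-hour exposures of cells grown in 96-well plates, with endpoints linearly interpolated between the two concentrations bracketing the appropriate inhibition level. GI50 marks 50% less growth.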 Active and inactive are the calls of the source. No stated cut-off is given here; in the data, active = GI50 up to about 1.1 µM and inactive = higher.
Assays:
Experiment in all cases: growth of human tumour cells (NCI), 48 h
[1] = system: KM-20L2
[2] = system: MCF7
[3] = system: BT-549
[4] = system: MDA-N
[5] = system: PC-3
[6] = system: 786-0
[7] = system: DU-145
[8] = system: T47D
[9] = system: RXF 631

Measured: GI50

O=C1ON(Cc2ccccc2)C(c2ccccc2)N1c1ccccc1 (stereo not drawn)
inactive: [1] > 100 µM | [2] > 100 µM

O=NN1C(c2ccccc2)CCCC1c1ccccc1 (stereo not drawn)
inactive: [1] > 100 µM | [2] 37.9 µM

C=CCN1/C(=C(\C#N)c2nc3ccccc3[nH]2)Sc2c1nc[nH]c2=O
inactive: [1] > 100 µM

CC(=O)OCC1OC(OCCCCCCO)C(OC(C)=O)C(OC(C)=O)C1OC(C)=O (stereo not drawn)
inactive: [3] > 100 µM | [2] > 100 µM | [4] > 100 µM | [5] > 100 µM

O=C1C(Cl)N(c2cccc(Cl)c2)C1c1c[nH]c2ccccc12 (stereo not drawn)
inactive: [1] > 100 µM

O=C(CC(C(=O)c1cccs1)c1ccc2c(c1)OCO2)c1ccc(Br)cc1 (stereo not drawn)
inactive: [6] > 100 µM | [7] > 100 µM | [2] > 100 µM | [4] > 100 µM | [5] > 100 µM | [8] > 100 µM

COc1ccc2c(c1)CCN=C2Cc1cc(OC)c(OC)cc1CCCl
inactive: [3] > 100 µM | [7] > 100 µM | [2] 52.2 µM | [4] 53.8 µM | [5] 48 µM | [8] 53.1 µM

O=C1C=CC2=[N+]([O-])C(c3ccccc3)(c3ccccc3)/C(=N\c3ccccc3)C2=C1
inactive: [1] 2.34 µM | [9] 3.05 µM

N#CC1(C#N)C(=O)c2ccncc2C1=O
inactive: [3] > 100 µM | [7] > 100 µM | [2] > 100 µM | [4] > 100 µM | [5] > 100 µM | [8] > 100 µM

CN1NC(c2ccccc2)=C(C#N)C(=O)CC1c1ccc(Br)cc1 (stereo not drawn)
inactive: [1] > 10 µM

O=C1NC2=C(CCCC/C2=N\O)C12CCCCC2
inactive: [1] > 100 µM

COC(=O)C12CC3CC(CC(C(=O)O)(C3)C1)C2
inactive: [6] > 100 µM | [1] > 100 µM | [9] > 100 µM

C=C(C)[C@@H]1CCC2=C[C@H](CC(C)=CC3=CC(C)=C(O3)[C@@H]1OC)OC2=O
inactive: [3] 51.6 µM | [7] > 100 µM | [2] 38.8 µM | [4] > 100 µM | [5] 83.8 µM | [8] > 100 µM

CCOC(=O)c1ccc(N(CCOS(=O)(=O)c2ccc(C)cc2)CCOS(=O)(=O)c2ccc(C)cc2)cc1
inactive: [3] > 100 µM | [2] 7.05 µM | [4] > 100 µM | [5] 17 µM

CCOC(=O)CC(=O)CSc1c(-c2ccccc2)c(=O)n(-c2ccccc2)c(=S)n1-c1ccccc1
inactive: [6] > 100 µM | [7] > 100 µM | [2] > 100 µM | [4] > 100 µM | [5] > 100 µM | [8] > 100 µM

O=S(=O)(O)c1ccc(/N=N\c2ccc(/N=N/c3ccc(/C=C/c4ccc(/N=[N+](\[O-])c5ccc(/C=C/c6ccc(/N=N/c7ccc(/N=N/c8ccc(S(=O)(=O)O)cc8)c8ccccc78)cc6S(=O)(=O)O)c(S(=O)(=O)O)c5)cc4S(=O)(=O)O)c(S(=O)(=O)O)c3)c3ccccc23)cc1
inactive: [1] > 100 µM | [2] > 100 µM
